In paper PMC9340770 (Journal of Medicinal Chemistry, 2022):
Where two headings read alike, the source gives them in different places.

Tests used:
AVPR1A = biological target: T1, AVPR1A (Homo sapiens, UniProt P37288); assay: Safetyscan Calcium Flux; assay type: cell-based
T1 construct: purchased DiscoverX (Eurofins) Safetyscan Panel

EDNRA = biological target: T2, EDNRA (Homo sapiens, UniProt P25101); assay: Safetyscan Calcium Flux; assay type: cell-based
T2 construct: purchased DiscoverX (Eurofins) Safetyscan Panel
T2 sequence (P25101 21-427): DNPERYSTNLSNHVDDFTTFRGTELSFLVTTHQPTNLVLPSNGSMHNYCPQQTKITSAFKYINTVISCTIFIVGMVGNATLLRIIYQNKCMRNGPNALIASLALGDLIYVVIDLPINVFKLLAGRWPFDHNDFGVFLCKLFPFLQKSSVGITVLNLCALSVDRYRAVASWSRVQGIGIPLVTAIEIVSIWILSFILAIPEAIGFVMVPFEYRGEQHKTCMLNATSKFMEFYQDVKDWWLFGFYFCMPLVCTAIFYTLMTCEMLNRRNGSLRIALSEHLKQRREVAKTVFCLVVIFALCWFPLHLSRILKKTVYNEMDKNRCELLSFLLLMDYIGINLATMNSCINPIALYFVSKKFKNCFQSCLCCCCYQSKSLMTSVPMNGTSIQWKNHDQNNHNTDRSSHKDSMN

GR = biological target: T3, GR (Homo sapiens, UniProt P04150); assay: Safetyscan NHR Protein Interaction; assay type: cell-based
T3 construct: purchased DiscoverX (Eurofins)
T3 sequence (P04150 whole entry): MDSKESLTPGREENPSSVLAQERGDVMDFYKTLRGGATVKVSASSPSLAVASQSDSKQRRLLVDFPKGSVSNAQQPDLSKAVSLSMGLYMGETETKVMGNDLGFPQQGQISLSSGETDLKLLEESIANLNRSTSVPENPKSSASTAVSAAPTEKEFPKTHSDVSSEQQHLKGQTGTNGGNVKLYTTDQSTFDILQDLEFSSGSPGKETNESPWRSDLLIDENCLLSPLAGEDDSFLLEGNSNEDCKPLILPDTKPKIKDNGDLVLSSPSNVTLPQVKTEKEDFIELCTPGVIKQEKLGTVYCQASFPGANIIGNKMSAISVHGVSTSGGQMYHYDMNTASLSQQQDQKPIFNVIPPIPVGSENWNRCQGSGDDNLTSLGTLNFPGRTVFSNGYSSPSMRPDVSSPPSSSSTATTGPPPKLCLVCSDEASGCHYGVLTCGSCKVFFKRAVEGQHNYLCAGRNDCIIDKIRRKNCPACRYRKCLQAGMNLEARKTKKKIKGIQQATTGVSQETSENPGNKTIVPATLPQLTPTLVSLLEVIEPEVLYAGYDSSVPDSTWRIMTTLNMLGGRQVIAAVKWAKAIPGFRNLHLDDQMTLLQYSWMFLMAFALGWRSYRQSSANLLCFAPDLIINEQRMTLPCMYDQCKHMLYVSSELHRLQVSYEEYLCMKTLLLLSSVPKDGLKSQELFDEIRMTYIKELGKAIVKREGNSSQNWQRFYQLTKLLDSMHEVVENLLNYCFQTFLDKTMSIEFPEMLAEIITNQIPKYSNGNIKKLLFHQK

[1] = PK across species (ranges); assay type: in vivo, CD-1 mice, Sprague–Dawley rats, and beagle dogs; details: range across mice, rats, dogs
[2] = system: MIA PaCa-2 tumor mouse xenograft; assay: Antitumor efficacy study in MIA PaCa-2 mouse xenograft; details: for tumor growth inhibition (TGI): single agent, 25 days
CYP3A4 = CYP3A4 (Homo sapiens, UniProt P08684); assay: biochemical
ROCK1 = biological target: T4, ROCK1 (Homo sapiens, UniProt Q13464); assay: Safetyscan Kinases Binding; details: read-out: RC50 (IC50) ROCK1 Inhibitor
T4 construct: purchased DiscoverX (Eurofins)
T4 sequence (Q13464 whole entry): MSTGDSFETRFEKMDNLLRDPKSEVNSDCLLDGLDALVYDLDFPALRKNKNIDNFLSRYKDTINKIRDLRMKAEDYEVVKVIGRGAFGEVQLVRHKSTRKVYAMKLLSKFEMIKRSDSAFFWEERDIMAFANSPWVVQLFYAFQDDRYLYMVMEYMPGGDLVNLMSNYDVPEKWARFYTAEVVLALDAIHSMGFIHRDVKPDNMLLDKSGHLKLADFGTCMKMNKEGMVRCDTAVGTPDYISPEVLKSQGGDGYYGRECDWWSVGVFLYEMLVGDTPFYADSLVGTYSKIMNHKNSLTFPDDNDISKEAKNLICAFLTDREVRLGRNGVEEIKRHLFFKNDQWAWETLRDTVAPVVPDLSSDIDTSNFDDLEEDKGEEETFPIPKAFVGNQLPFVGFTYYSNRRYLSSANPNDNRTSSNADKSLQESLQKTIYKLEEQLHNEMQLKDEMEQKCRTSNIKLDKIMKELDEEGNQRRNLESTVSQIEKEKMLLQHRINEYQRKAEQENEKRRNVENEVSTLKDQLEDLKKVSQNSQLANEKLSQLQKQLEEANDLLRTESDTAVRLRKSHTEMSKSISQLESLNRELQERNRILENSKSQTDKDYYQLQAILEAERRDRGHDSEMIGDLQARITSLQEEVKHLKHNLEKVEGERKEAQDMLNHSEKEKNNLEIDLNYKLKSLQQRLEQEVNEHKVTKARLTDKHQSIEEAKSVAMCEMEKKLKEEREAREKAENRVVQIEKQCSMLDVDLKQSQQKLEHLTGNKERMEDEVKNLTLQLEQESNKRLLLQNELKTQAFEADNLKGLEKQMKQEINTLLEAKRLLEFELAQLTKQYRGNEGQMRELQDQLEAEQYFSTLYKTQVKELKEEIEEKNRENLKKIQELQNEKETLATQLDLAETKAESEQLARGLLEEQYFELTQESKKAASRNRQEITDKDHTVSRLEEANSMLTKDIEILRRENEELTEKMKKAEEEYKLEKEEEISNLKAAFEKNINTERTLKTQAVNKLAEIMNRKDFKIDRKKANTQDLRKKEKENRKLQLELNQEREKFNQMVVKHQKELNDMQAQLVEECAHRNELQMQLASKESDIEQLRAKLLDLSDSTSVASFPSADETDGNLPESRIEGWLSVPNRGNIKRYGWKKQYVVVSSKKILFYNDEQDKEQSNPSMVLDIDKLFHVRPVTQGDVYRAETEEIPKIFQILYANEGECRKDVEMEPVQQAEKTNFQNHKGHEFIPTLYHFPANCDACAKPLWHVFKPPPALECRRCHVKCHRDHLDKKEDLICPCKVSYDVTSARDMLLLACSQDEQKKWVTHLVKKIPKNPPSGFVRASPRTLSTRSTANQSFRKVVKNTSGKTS

HRH2 = biological target: T5, HRH2 (Homo sapiens, UniProt P25021); assay: Safetyscan cAMP; assay type: cell-based
T5 construct: purchased DiscoverX (Eurofins) Safetyscan Panel
T5 sequence (P25021 whole entry): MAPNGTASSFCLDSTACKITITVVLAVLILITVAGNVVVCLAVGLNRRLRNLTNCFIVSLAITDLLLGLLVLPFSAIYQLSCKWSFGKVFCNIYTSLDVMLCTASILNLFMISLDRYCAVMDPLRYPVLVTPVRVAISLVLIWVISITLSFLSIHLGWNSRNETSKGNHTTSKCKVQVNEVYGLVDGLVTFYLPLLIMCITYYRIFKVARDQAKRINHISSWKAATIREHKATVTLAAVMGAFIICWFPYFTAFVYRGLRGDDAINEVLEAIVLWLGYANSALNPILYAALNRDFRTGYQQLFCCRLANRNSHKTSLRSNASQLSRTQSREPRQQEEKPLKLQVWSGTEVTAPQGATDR

CCKAR = biological target: T6, CCKAR (Homo sapiens, UniProt P32238); assay: Safetyscan Calcium Flux; assay type: cell-based
T6 construct: purchased DiscoverX (Eurofins) Safetyscan Panel
T6 sequence (P32238 whole entry): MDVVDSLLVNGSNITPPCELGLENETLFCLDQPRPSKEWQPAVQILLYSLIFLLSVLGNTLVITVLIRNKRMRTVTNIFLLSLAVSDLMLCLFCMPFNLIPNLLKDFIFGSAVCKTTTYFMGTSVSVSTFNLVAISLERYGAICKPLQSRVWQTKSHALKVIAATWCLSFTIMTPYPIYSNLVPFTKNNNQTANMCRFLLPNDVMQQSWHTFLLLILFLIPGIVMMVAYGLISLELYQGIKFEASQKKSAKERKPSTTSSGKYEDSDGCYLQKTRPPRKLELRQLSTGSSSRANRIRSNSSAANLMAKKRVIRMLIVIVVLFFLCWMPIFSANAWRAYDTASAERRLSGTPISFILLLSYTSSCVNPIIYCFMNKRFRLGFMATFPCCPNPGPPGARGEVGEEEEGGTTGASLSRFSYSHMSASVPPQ

VEGFR2 = biological target: T7, VEGFR2 (Homo sapiens, UniProt P35968); assay: Safetyscan Kinases Binding; details: read-out: RC50 (IC50) VEGFR2 Inhibitor
T7 construct: purchased DiscoverX (Eurofins)

Rat PK (IV and PO) = assay type: in vivo, Sprague–Dawley rats
Text: Table 9 PK Parameters for MRTX0902 (32) across Species | column: rat

Dog PK (IV and PO) = assay type: in vivo, beagle dogs
Text: Table 9 PK Parameters for MRTX0902 (32) across Species | column: dog

PDE3A = biological target: T8, PDE3A (Homo sapiens, UniProt Q14432); assay: Safetyscan Enzymatic; assay type: biochemical; details: read-out: RC50 (IC50) PDE3A Inhibitor
T8 construct: purchased DiscoverX (Eurofins)
T8 sequence (Q14432 whole entry): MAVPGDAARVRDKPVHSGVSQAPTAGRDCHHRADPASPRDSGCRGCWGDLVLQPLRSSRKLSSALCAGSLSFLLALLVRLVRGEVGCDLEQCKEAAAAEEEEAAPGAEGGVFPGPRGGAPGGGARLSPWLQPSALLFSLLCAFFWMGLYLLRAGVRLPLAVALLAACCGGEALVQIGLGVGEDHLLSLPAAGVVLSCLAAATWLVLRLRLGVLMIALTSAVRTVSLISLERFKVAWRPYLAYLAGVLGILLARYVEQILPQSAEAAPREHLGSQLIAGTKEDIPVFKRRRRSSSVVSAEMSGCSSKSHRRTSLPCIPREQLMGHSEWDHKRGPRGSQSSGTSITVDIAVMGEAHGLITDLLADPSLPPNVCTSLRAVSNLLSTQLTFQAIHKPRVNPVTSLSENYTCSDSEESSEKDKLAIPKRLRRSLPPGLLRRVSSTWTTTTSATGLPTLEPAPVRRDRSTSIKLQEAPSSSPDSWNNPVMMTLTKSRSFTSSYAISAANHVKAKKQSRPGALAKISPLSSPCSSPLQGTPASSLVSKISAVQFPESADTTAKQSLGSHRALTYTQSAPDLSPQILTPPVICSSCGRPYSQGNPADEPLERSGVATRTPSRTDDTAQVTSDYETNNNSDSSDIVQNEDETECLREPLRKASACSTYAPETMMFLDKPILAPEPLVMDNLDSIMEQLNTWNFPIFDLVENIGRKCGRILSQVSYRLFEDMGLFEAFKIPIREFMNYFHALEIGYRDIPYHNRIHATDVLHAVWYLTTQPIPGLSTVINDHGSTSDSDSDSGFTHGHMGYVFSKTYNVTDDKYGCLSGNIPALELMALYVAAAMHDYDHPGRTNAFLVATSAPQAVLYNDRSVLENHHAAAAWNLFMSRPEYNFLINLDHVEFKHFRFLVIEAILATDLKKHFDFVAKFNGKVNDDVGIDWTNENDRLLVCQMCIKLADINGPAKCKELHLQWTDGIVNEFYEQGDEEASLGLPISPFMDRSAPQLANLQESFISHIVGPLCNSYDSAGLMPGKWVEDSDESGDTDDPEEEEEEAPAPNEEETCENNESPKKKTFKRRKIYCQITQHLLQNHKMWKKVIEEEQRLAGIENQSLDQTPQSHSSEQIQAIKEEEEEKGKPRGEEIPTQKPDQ

COX2 = biological target: T9, COX2 (Homo sapiens, UniProt P35354); assay: Safetyscan Enzymatic; assay type: biochemical; details: read-out: RC50 (IC50) COX2 Inhibitor
T9 construct: purchased DiscoverX (Eurofins)

INSR = biological target: T10, INSR (Homo sapiens, UniProt P06213); assay: Safetyscan Kinases Binding; details: read-out: RC50 (IC50) INSR Inhibitor
T10 construct: purchased DiscoverX (Eurofins)

[3] = pKa determination (Sirius T3); assay type: physicochemical; details: for pKa: water/methanol co-solvent mixture
Procedure: Sirius T3Dt (Sirius Analytical Instruments Ltd) fitted with combination Ag/AgCl pH electrode was used for the determination of dissociation constants. The pKa and psKa values were calculated by Sirius T3Dt software (Sirius Analytical Instruments Ltd, Version 1.0.12.120). There are two methods available on the Sirius T3 for pKa measurement: potentiometric titration and spectroscopic (UV) titration.
UV metric method: Pipetted 5 µL of sample stock solution (10 mM in DMSO) and 25 µL fast UV buffer into a sample vial, and 1.5 mL of 80%v/v MeOH was added into the sample vial automatically. Pre - acidified the sample solution with 0.5 M HCl by the instrument automatically, and then titrated three times from low to high pH. Refined the data to get aqu eous pKa value. pH metric method: About 1 mg of sample was weighed into a sample vial. 1.50 mL of 80%v/v MeOH was added into the vial automatically. The sample was solution pre -acidified with 0.5 M HCl by the instrument automatically, and then titrated three times from low to high pH. Refined the data to get aqueous pKa value.
Sirius T3 software always fits Yasuda -Shedlovsky data linearly, according to the equation.
• Yi is calculated as psKa + log [H 2O]
• psKa represents apparent pKa values of compounds measured in water/co -solvent mixtures • [H2O] represents the concentration of H2O in mixtures solution […]
• ε i represents dielectric constant of water/co-solvent mixture
Table S3. pKa of MRTX0902
Cmpd pKa pKa (pH Final pKa

[4] = mouse, IV 3 mg/kg
[5] = system: pERK in MIA PaCa-2 tumors; assay: Tumor pharmacodynamic (pERK) study in MIA PaCa-2 mouse xenograft
CAV1.2 = biological target: T11, CAV1.2 (Homo sapiens, UniProt Q13936); assay: Safetyscan Ion Channel; assay type: cell-based; details: blocker mode, read-out: RC50 (IC50) CAV1.2 Blocker
T11 construct: purchased DiscoverX (Eurofins)

PDE4D2 = biological target: T12, PDE4D2 (Homo sapiens, UniProt Q08499); assay: Safetyscan Enzymatic; assay type: biochemical; details: read-out: RC50 (IC50) PDE4D2 Inhibitor
T12 construct: purchased DiscoverX (Eurofins)

[6] = system: safety panel comprised of 78 protein targets; assay: DiscoverX (Eurofins) Safetyscan panel, overall; details: safety panel of 78 protein targets
[7] = CD-1, Sprague-Dawley, beagle, mouse, rat, dog, in vivo, IV administration

T1 sequence (P37288 whole entry): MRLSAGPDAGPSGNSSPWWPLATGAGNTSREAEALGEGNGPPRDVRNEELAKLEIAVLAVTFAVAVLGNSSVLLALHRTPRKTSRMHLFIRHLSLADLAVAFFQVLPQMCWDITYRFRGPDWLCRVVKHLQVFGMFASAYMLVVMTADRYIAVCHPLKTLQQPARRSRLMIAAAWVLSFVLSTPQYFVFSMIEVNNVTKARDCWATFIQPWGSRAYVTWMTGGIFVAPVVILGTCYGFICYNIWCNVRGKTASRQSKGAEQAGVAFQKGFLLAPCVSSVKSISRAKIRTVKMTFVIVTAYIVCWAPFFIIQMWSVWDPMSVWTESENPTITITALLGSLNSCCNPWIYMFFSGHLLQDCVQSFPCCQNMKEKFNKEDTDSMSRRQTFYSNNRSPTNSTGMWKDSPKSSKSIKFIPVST

Structure (SMILES): Cc1c(C#N)cccc1[C@@H](C)Nc1nnc(C)c2cnc(N3CCOCC3)cc12 [Compound 32, (R)-2-Methyl-3-(1-((4-methyl-7-morpholinopyrido[3,4-d]pyridazin-1-yl)amino)ethyl)benzonitrile]
- EC50 (AVPR1A; agonist mode, read-out: RC50 (EC50) AVPR1A Agonist): > 10 µM
- IC50 (AVPR1A; antagonist mode, read-out: RC50 (IC50) AVPR1A Antagonist): > 10 µM
- EC50 (EDNRA; agonist mode, read-out: RC50 (EC50) EDNRA Agonist): > 10 µM
- IC50 (EDNRA; antagonist mode, read-out: RC50 (IC50) EDNRA Antagonist): > 10 µM
- EC50 (GR; agonist mode, read-out: RC50 (EC50) GR Agonist): > 10 µM
- IC50 (GR; antagonist mode, read-out: RC50 (IC50) GR Antagonist): > 10 µM
- clearance [1, 7]: 4.4 to 14.6 mL/min/kg
- half-life [1, 7]: 37.2 to 78 min
- Vd ([1]; CD-1, Sprague-Dawley, beagle, mouse, rat, dog, in vivo, IV administration, read-out: volume of distribution): 0.28 to 0.48 L/kg
- bioavailability ([1]; PO suspension in 0.5% MC (4000 cps)/0.2% Tween80 in water): 38–83 %F
- tumor regression ([2]; MRTX0902 25 mg/k bid in combination with MRTX849 10 mg/kg qd): −54%
- tumor regression ([2]; MRTX0902 50 mg/kg bid in combination with MRTX849 10 mg/kg qd): −92%
- tumor-free animals ([2]; MRTX0902 50 mg/kg bid with MRTX849 10 mg/kg qd, n = 5 animals/group): two tumor-free animals
- tumor growth inhibition (TGI) ([2]; 25 mg/kg bid PO): 41%
- tumor growth inhibition (TGI) ([2]; 50 mg/kg bid PO): 53%
- IC50 (CYP3A4): 3.6 µM
- IC50 (ROCK1): > 10 µM
- EC50 (HRH2; agonist mode, read-out: RC50 (EC50) HRH2 Agonist): > 10 µM
- IC50 (HRH2; antagonist mode, read-out: RC50 (IC50) HRH2 Antagonist): > 10 µM
- EC50 (CCKAR; agonist mode, read-out: RC50 (EC50) CCKAR Agonist): > 10 µM
- IC50 (CCKAR; antagonist mode, read-out: RC50 (IC50) CCKAR Antagonist): > 10 µM
- IC50 (VEGFR2): > 10 µM
- IV t1/2 (Rat PK (IV and PO); IV 1 mg/kg): 37.2 min
- Vd,ss (Rat PK (IV and PO); IV 1 mg/kg): 0.28 L/kg
- clearance (Rat PK (IV and PO); Sprague-Dawley, in vivo, IV 1 mg/kg): 14.6 mL/min/kg
- bioavailability (Rat PK (IV and PO); Sprague-Dawley, in vivo, IV/PO 1/10 mg/kg, PO suspension in 0.5% MC (4000 cps)/0.2% Tween80 in water): 83%
- F (Dog PK (IV and PO); IV/PO 2/10 mg/kg, PO suspension in 0.5% MC (4000 cps)/0.2% Tween80 in water): 38%
- clearance (Dog PK (IV and PO); beagle, in vivo, IV 2 mg/kg): 7.6 mL/min/kg
- half-life (Dog PK (IV and PO); beagle, in vivo, IV 2 mg/kg, read-out: IV t1/2 (converted)): 51.6 min
- Vd (Dog PK (IV and PO); beagle, in vivo, IV 2 mg/kg, read-out: Vd,ss): 0.48 L/kg
- IC50 (PDE3A): > 10 µM
- IC50 (COX2): > 10 µM
- IC50 (INSR): > 10 µM
- ionized at pH 7.4 ([3]; pH 7.4, based on measured pKa): ~17%
- pKa ([3]; UV metric method, read-out: pKa (UV metric)): 6.78
- pKa ([3]; pH 7.4, pKa (final pKa result)): 6.7
- pKa ([3]; pH metric method, read-out: pKa (pH metric)): 6.62
- Cl [4]: 4.4 mL/min/kg
- IV t1/2 [4]: 78 min
- Vd,ss [4]: 0.28 L/kg
- pERK modulation in tumors, combination ([5]; MRTX0902 in combination with MRTX849, 6 days of dosing, tumors collected 4 h after last dose): increased pERK modulation
- efficacious free Cavg ([5]; calculated from AUC0–24 of 50 mg/kg bid in combination with MRTX849, MIA PaCa-2 PD study, 6 days of dosing): 25 nM
- IC50 (CAV1.2): > 10 µM
- IC50 (PDE4D2): > 10 µM
- IC50 [6]: > 10 µM
